Biological target: T1, PI3Kα H1047R (T47D cells) (Homo sapiens, UniProt P42336, H1047R)
T1 construct: endogenous in cells; host or cells: T47D cells
Experiment: PI3Kα cellular assay: pAKT HTRF in T47D cells after EGF stimulation
Format: cell-based
Conditions: for IC50: T47D cells (PI3Kα H1047R), pAKT S473 HTRF, EGF stimulation; for T47D pAKT S473 HTRF IC50 (H1047R): T47D (H1047R) selectivity over SKBR3 (WT): selectivity of T47D (H1047R) over SKBR3 (WT) pAKT IC50
Procedure, shortened: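 T47D cells (PIK3CA H1047R) serum-starved 16 h, then treated 1 h at 37 °C with compound (10,000 nM top, 3-fold steps to 0.5 nM). After 10 min stimulation with 20 ng/mL EGF, cells were lysed and pAKT measured by HTRF.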

T1 sequence (P42336 whole entry H1047R): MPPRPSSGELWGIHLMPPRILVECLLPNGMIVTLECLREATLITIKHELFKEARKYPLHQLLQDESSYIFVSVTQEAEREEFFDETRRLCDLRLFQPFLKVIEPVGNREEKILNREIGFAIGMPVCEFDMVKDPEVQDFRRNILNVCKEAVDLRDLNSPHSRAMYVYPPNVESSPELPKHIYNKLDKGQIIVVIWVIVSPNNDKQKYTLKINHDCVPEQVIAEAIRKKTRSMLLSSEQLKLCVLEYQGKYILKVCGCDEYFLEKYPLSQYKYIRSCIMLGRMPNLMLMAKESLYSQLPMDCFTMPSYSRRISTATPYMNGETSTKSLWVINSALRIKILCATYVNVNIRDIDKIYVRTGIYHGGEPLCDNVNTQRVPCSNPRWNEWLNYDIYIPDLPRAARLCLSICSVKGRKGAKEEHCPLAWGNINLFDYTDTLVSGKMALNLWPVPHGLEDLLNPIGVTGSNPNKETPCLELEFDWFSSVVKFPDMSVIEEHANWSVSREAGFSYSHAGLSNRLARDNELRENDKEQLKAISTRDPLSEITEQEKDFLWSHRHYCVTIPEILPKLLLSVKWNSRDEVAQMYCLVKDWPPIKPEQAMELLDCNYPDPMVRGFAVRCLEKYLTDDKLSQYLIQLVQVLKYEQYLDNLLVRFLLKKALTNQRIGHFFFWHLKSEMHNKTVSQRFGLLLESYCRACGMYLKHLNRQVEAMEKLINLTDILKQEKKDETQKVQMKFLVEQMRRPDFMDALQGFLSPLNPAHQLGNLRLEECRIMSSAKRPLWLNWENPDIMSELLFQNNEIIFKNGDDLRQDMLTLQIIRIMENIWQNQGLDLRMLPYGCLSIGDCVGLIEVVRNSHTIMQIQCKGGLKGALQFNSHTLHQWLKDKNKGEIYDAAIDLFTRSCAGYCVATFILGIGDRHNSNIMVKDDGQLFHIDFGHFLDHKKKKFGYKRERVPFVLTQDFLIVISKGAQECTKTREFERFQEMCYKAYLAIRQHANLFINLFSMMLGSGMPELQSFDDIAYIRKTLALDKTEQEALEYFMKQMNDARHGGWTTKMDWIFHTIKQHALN
T1 sequence (P27986 whole entry partner): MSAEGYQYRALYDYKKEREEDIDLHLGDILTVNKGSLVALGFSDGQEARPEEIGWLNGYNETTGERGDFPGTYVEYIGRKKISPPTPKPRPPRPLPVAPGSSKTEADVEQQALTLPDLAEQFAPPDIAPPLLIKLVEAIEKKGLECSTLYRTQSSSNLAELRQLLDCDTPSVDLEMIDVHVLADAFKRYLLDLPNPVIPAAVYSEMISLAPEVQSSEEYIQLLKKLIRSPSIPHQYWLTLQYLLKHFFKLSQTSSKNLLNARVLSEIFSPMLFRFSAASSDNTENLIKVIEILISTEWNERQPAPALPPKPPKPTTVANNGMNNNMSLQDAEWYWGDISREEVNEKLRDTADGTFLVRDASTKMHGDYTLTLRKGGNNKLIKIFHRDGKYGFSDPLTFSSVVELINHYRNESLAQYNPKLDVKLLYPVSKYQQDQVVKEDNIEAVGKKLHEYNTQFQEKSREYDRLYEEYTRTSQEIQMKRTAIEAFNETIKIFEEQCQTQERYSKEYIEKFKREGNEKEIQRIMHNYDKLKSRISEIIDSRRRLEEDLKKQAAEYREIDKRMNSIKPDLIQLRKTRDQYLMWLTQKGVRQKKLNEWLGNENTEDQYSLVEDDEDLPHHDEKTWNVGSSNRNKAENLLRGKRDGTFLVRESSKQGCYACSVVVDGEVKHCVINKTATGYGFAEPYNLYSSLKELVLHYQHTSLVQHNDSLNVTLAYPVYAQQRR

| Compound | IC50 | T47D pAKT S473 HTRF IC50 (H1047R): T47D (H1047R) selectivity over SKBR3 (WT) |
| --- | --- | --- |
| Cc1cc(C(C)Nc2cccc(CO)c2C(=O)O)c2nc(-c3ccc4c(c3)c(C)nn4C)cc(=O)n2c1 (stereo not drawn) [Compound 933] | > 2000 nM | C (C denotes ≤5-fold) |
| Cc1cc([C@H](C)Nc2ccccc2C(=O)O)c2nc(N3C[C@H]4C[C@@H](C5CCN(S(=O)(=O)N(C)C)CC5)C[C@H]4C3)cc(=O)n2c1 [Compound 935] |  | C (C denotes ≤5-fold) |
| C=CC(=O)Nc1cc(C(C)Nc2ccccc2C(=O)O)c2nc(N3Cc4ccccc4C3)cc(=O)n2c1 (stereo not drawn) [Compound 939] | > 2000 nM | C (C denotes ≤5-fold) |
| Cc1cc([C@@H](C)Nc2cccc(CO)c2C(=O)O)c2nc(-c3ccc4c(c3)c(C)nn4C)cc(=O)n2c1 [Compound 940] | > 2000 nM | C (C denotes ≤5-fold) |
| Cc1cc([C@H](C)Nc2cccc(CO)c2C(=O)O)c2nc(-c3ccc4c(c3)c(C)nn4C)cc(=O)n2c1 [Compound 941] | > 2000 nM | C (C denotes ≤5-fold) |
| Cc1cc([C@H](C)Nc2ccccc2C(=O)O)c2nc(-c3cccnc3)c(C)c(=O)n2c1 [Compound 950] | > 2000 nM | C (C denotes ≤5-fold) |
| Cc1cc([C@H](C)Nc2ccccc2C(=O)O)c2nc(-c3ccnc(C4CC4)c3)c(C)c(=O)n2c1 [Compound 954] | 500 to 2000 nM | B (B denotes 20-fold≥value>5-fold) |
| Cc1cc([C@@H](C)Nc2ccccc2C(=O)C(F)(F)F)c2nc(N(C)Cc3ccccc3)c(C)c(=O)n2c1 [Compound 957] | > 2000 nM | C (C denotes ≤5-fold) |
| Cc1cc([C@H](C)Nc2ccccc2C(=O)C(F)(F)F)c2nc(N3Cc4ccccc4C3)c(C)c(=O)n2c1 [Compound 958] | > 2000 nM | C (C denotes ≤5-fold) |
| Cc1cc([C@H](C)Nc2ccccc2S(N)(=O)=O)c2nc(-c3ccc4c(c3)c(C)nn4C3CC3)c(C)c(=O)n2c1 [Compound 962] | > 2000 nM | C (C denotes ≤5-fold) |
| Cc1cc([C@@H](C)Nc2ccccc2C(=O)O)c2nc(-c3cccc(C(F)F)c3)c(C)c(=O)n2c1 [Compound 972, (R)-2-((1-(2-(3-(difluoromethyl)phenyl)-3,7-dimethyl-4-oxo-4H-pyrido[1,2-a]pyrimidin-9-yl)ethyl)amino)benzoic acid] | < 100 nM | A (A denotes >20-fold) |
| Cc1cc([C@H](C)Nc2ccccc2C(=O)O)c2nc(-c3ccc(C#N)nc3)c(C)c(=O)n2c1 [Compound 976] | > 2000 nM | C (C denotes ≤5-fold) |
| Cc1cc(C(C)Nc2cccc(C#N)c2C(=O)O)c2nc(-c3ccc4c(c3)c(C)nn4C)cc(=O)n2c1 (stereo not drawn) [Compound 981] | > 2000 nM | C (C denotes ≤5-fold) |
| Cc1cc([C@H](C)Nc2ccccc2C(=O)O)c2nc(-c3ccc4c(C)cn(C)c4c3)c(C)c(=O)n2c1 [Compound 985] | > 2000 nM | C (C denotes ≤5-fold) |
| Cc1cc([C@H](C)Nc2ccccc2S(N)(=O)=O)c2nc(-c3cnc4c(c3)c(C)nn4C)c(C)c(=O)n2c1 [Compound 988] | > 2000 nM | C (C denotes ≤5-fold) |
| Cc1cc([C@@H](C)Nc2ccccc2S(N)(=O)=O)c2nc(-c3ccc4c(c3)c(C)cn4C3CC3)c(C)c(=O)n2c1 [Compound 995] | > 2000 nM | C (C denotes ≤5-fold) |
| Cc1cc(C(C)Nc2cccc3c2S(=O)(=O)NC3=O)c2nc(N3Cc4ccccc4C3)cc(=O)n2c1 (stereo not drawn) [Compound 998] |  | C (C denotes ≤5-fold) |
| Cc1cc([C@@H](C)Nc2ccccc2C(=O)O)c2nc(-c3ccncc3)c(C)c(=O)n2c1 [Compound 1004] | > 2000 nM | C (C denotes ≤5-fold) |
| Cc1cc([C@H](C)Nc2ccccc2C(=O)O)c2nc(-c3ccc4c(c3)c(C)cn4C3CCOCC3)c(C)c(=O)n2c1 [Compound 1009] |  | C (C denotes ≤5-fold) |
| Cc1cc([C@@H](C)Nc2cc[nH]c2-c2ccnnc2)c2nc(N3Cc4ccccc4C3)c(C)c(=O)n2c1 [Compound 1014] |  | C (C denotes ≤5-fold) |

Results, then the compound that gave them:

| IC50 | T47D pAKT S473 HTRF IC50 (H1047R): T47D (H1047R) selectivity over SKBR3 (WT) | Compound |
| --- | --- | --- |
| 100 to 500 nM | A (A denotes >20-fold) | Cc1cc([C@H](C)Nc2cccnc2-c2ccnnc2)c2nc(N3Cc4ccccc4C3)cc(=O)n2c1 [Compound 943] |
| 100 to 500 nM | A (A denotes >20-fold) | Cc1cc(C(C)Nc2ccccc2S(N)(=O)=O)c2nc(-c3ccc4c(c3)c(C)nn4C3CC3)c(C)c(=O)n2c1 (stereo not drawn) [Compound 944] |
| < 100 nM | A (A denotes >20-fold) | Cc1cc([C@@H](C)Nc2ccccc2C(=O)O)c2nc(-c3ccc4[nH]c(=O)sc4c3)c(C)c(=O)n2c1 [Compound 945] |
| 500 to 2000 nM | B (B denotes 20-fold≥value>5-fold) | Cc1cc([C@H](C)Nc2ccccc2C(=O)O)c2nc(-c3ccc4[nH]c(=O)sc4c3)c(C)c(=O)n2c1 [Compound 946] |
| 500 to 2000 nM | B (B denotes 20-fold≥value>5-fold) | Cc1cc([C@H](C)Nc2ccccc2C(=O)O)c2nc(-c3ccc(F)c(C#N)c3)c(C)c(=O)n2c1 [Compound 948] |
| 100 to 500 nM | A (A denotes >20-fold) | Cc1cc([C@@H](C)Nc2ccccc2S(N)(=O)=O)c2nc(-c3ccc4c(c3)c(C)nn4C3CC3)c(C)c(=O)n2c1 [Compound 961] |
| < 100 nM | A (A denotes >20-fold) | Cc1cc([C@@H](C)Nc2ccccc2C(=O)O)c2nc(-c3ccc4c(C)cn(C)c4c3)c(C)c(=O)n2c1 [Compound 984] |
| 100 to 500 nM | A (A denotes >20-fold) | Cc1cc(C(C)Nc2ccccc2S(N)(=O)=O)c2nc(-c3cnc4c(c3)c(C)nn4C3CC3)c(C)c(=O)n2c1 (stereo not drawn) [Compound 990] |
| 100 to 500 nM | A (A denotes >20-fold) | Cc1cc([C@@H](C)Nc2ccccc2S(N)(=O)=O)c2nc(-c3cnc4c(c3)c(C)nn4C3CC3)c(C)c(=O)n2c1 [Compound 991] |
| 100 to 500 nM | A (A denotes >20-fold) | CCc1c(-c2ccc3c(c2)c(C)cn3C)nc2c(C(C)Nc3ccccc3C(=O)O)cc(C)cn2c1=O (stereo not drawn) [Compound 1019] |
| < 100 nM | A (A denotes >20-fold) | Cc1cc([C@@H](C)Nc2ccccc2C(=O)O)c2nc(-c3ccc(F)c(C)c3)c(C)c(=O)n2c1 [Compound 1022] |
| 100 to 500 nM | A (A denotes >20-fold) | Cc1cc(C(C)Nc2ccccc2C(=O)O)c2nc(-c3ccc4c(c3)c(C#N)nn4C3CC3)c(C)c(=O)n2c1 (stereo not drawn) [Compound 1026] |

— US20260132129A1 (Genesis Therapeutics, Inc., priority 2022, published 2026)
